# Assay results: US11466044B2 (WAYNE STATE UNIVERSITY, priority 2017, dated 2022)
# Like-named read-outs stand apart in the source and are kept apart here.
# Columns and labels:
# M. smegmatis SZ380 = test: MIC by broth microdilution, M. smegmatis; settings: for MIC: Mycolicibacterium smegmatis
# E coli wild type = test: MIC by broth microdilution, wild type E coli; format: cell-based; settings: for MIC: Escherichia coli
# P aeruginosa = test: MIC by broth microdilution, P aeruginosa isolates; format: cell-based, Pseudomonas aeruginosa; settings: for MIC: read-out: MIC AG220 P. aerugin; for MIC50: Pseudomonas aeruginosa
# [1] = tested on: Enterobacter cloacae AG290; test: MIC by broth microdilution, Enterobacter cloacae; format: cell-based; settings: strain AG290 Enterobacter cloacae; for MIC: read-out: MIC AG290 E. cloacae
# [2] = tested on: Acinetobacter baumannii pittii AG225; test: MIC by broth microdilution, Acinetobacter baumannii; format: cell-based; settings: strain AG225 Acinetobacter baumannii pittii
# [3] = tested on: Klebsiella pneumonia AG215; test: MIC by broth microdilution, Klebsiella pneumonia; format: cell-based; settings: strain AG215 Klebsiella pneumonia; for MIC: Klebsiella pneumoniae, read-out: MIC AG215 K. pneumon
# [4] = tested on: E coli carrying specific resistance determinants; test: MIC by broth microdilution, E coli carrying specific resistance determinants; format: cell-based; settings: for MIC: Escherichia coli
# M. abscessus = test: MIC by broth microdilution, M. abscessus; format: cell-based; settings: for MIC: Mycobacteroides abscessus
# MRSA = test: MIC by broth microdilution, MRSA isolates; format: cell-based; settings: Table 1 (Example 2); for MIC50 MRSA AG38: strain AG38
# [5] = tested on: wild type bacterial ribosomes; test: in-vitro translation assay, bacterial ribosomes; format: biochemical; settings: bacterial ribosome; Table 3 (Example 2); read-out: IC50 Bac
# From the text: (§1) The antiribosomal activity of these compounds was investigated with cell-free translation assays using both wild type bacterial ribosomes and hybrid ribosomes carrying eukaryotic decoding A sites enabling the prediction of selectivity.
# [6] = tested on: mitochondrial ribosome (human chimeric); format: biochemical; settings: mitochondrial; Table 3 (Example 2); read-out: IC50 Mit
# From the text: as §1
# [7] = tested on: cytosolic ribosome (human chimeric); format: biochemical; settings: cytosolic; Table 3 (Example 2); read-out: IC50 Cyt
# From the text: as §1
# [8] = SZ380, read-out: MIC SZ380 M. smegmatis, strain SZ380 Mycobacterium smegmatis
# [9] = ATCC25922, strain AG212 E. coli (ATCC25922), read-out: MIC AG212 E. coli
# [10] = strain AG220 Pseudomonas aeruginosa ATCC27853
# [11] = SZ380, read-out: MIC M. smegmatis SZ380 WT, SZ380 WT, Table 5 (Example 3)
# [12] = WT, Table 5 (Example 3), read-out: MIC E. coli WT
# [13] = read-out: MIC E. coli pGB2armA armA
# [14] = read-out: MIC E. coli pH434 AAC(2′)-Ib
# [15] = ATCC19977, ATCC 19977 WT, Table 5 (Example 3), read-out: MIC M. abscessus ATCC 19977 WT
# [16] = read-out: MIC M. abscessus clinical isolate
# [17] = read-out: MIC M. abscessus engineered Δeis2
# [18] = ATCC 19977 WT, Table 5 (Example 3)
compound,measurement,setting,value
CCO[C@@H]1C(CN)O[C@H](O[C@@H]2C(N)C[C@@H](N)C(O)[C@H]2O[C@@H]2O[C@H](CO)[C@H](OCCN)C2O)[C@@H](N)C1O (stereo partly shown) [Compound 073],MIC,M. smegmatis SZ380; [8],8 µg/mL
same,MIC,E coli wild type; [9],8 µg/mL
same,MIC,P aeruginosa; [10],> 128 µg/mL
same,MIC,[1],4 µg/mL
same,MIC,[2],8 µg/mL
same,MIC,[3],4 µg/mL
NC[C@@H]1O[C@H](O[C@@H]2C(O)[C@H](O[C@@H]3C(O)[C@H](N)CC(N)[C@H]3O[C@H]3OC4C(O)CCCO[C@H]4[C@H](O)C3N)O[C@@H]2CO)C(N)C(O)[C@@H]1O (stereo partly shown) [Compound 199],MIC,E coli wild type; [9],> 32 µg/mL
same,MIC,P aeruginosa; [10],> 32 µg/mL
same,MIC,[1],> 32 µg/mL
same,MIC,[2],> 32 µg/mL
same,MIC,[3],32 µg/mL
"CN[C@@H]1[C@@H](O)[C@@H](O[C@@H]2[C@@H](O)[C@H](O[C@H]3OC(CNCCO)=CC[C@H]3N)[C@@H](N)C[C@H]2NC(=O)[C@@H](O)CCN)OC[C@]1(C)O [PLZ, plazomicin, reference compound]",MIC,M. smegmatis SZ380; [11],0.25 µg/mL
same,MIC,E coli wild type; [12],0.5 to 1 µg/mL
same,MIC,[4]; read-out: MIC E. coli AG106 AAC(2′)-Ia,8 to 16 µg/mL
same,MIC,[4]; [13],> 128 µg/mL
same,MIC,[4]; [14],8 µg/mL
same,MIC,M. abscessus; [15],1 µg/mL
same,MIC,M. abscessus; [16],4 µg/mL
same,MIC,M. abscessus; [17],1 µg/mL
CCC(O)C1OC(OC2C(N)CC(N)C(O)C2OC2OC(CO)C(OC3OC(CN)C(O)C(O)C3N)C2O)C(N)C(O)C1O (stereo not shown) [Compound 189],MIC50 MRSA AG38,MRSA,4 to 8 µg/mL
same,MIC AG212 E. coli,E coli wild type; strain AG212 E. coli (ATCC25922),8 µg/mL
same,MIC AG220 P. aerugin,P aeruginosa; [10],>64 µg/mL
same,MIC AG290 E. cloacae,[1],2 to 4 µg/mL
same,MIC AG225 A. baumannii,[2],4 to 8 µg/mL
same,MIC AG215 K. pneumon,[3],2 µg/mL
CCC(O)C1O[C@H](O[C@@H]2C(N)C[C@@H](N)C(O)[C@H]2O[C@@H]2O[C@H](CO)[C@H](O[C@H]3O[C@@H](CN)[C@@H](O)C(O)C3N)C2O)C(N)[C@@H](O)[C@@H]1O (stereo partly shown) [Compound 192],MIC,E coli wild type; [9],4 µg/mL
same,MIC,P aeruginosa; [10],> 64 µg/mL
same,MIC,[1],2 to 4 µg/mL
same,MIC,[2],8 µg/mL
same,MIC,[3],2 µg/mL
"CC1CC(O)C2O[C@H](O[C@@H]3C(N)C[C@@H](N)C(O)[C@H]3O[C@@H]3O[C@H](CO)[C@H](O[C@H]4O[C@@H](CN)[C@@H](O)C(O)C4N)C3O)C(N)[C@@H](O)[C@@H]2O1 (stereo partly drawn) [Compound 109, 4-O-(2′-Amino-4′,8′-anhydro-2′,7′,9′-trideoxy-D-erythro-α-D-gluco-nonapyranosyl)-5-O-[3-O-(2,6-diamino-2,6-dideoxy-β-L-idopyranosyl)-β-D-ribofuranosyl]-2-deoxystreptamine.5AcOH]",MIC50,"MRSA; Staphylococcus aureus, MRSA, strain AG42, read-out: MIC50 MRSA AG42",16 to 32 µg/mL
same,MIC50 MRSA AG38,MRSA,32 µg/mL
same,MIC50 MRSA AG39,MRSA; strain AG39,32 to 64 µg/mL
same,MIC50 MRSA AG44,MRSA; strain AG44,32 µg/mL
same,MIC SZ380 M. smegmatis,M. smegmatis SZ380; strain SZ380 Mycobacterium smegmatis,16 µg/mL
same,IC50,[5],0.47 µM
same,MIC50 E coli BM13 (AG06) wt,"E coli wild type; BM13 (AG06) wt, Table 2A (Example 2)",16 to 32 µg/mL
same,MIC WT,"E coli wild type; WT, Table 3 (Example 2)",16 to 32 µg/mL
same,MIC50 E coli pH430 WT,"E coli wild type; pH430 WT, Table 2B (Example 2)",16-32 μg/ml
same,MIC50 E coli AG01,"E coli wild type; strain AG01, Table 1 (Example 2)",128 µg/mL
same,MIC50 E coli AG03,"E coli wild type; strain AG03, Table 1 (Example 2)",64 to 128 µg/mL
same,MIC50 E coli AG55,"E coli wild type; strain AG55, Table 1 (Example 2)",64 to 128 µg/mL
same,MIC50,"P aeruginosa; strain AG33, Table 1 (Example 2), read-out: MIC50 P aeruginosa AG33",> 128 µg/mL
same,MIC50,"P aeruginosa; strain AG86, Table 1 (Example 2), read-out: MIC50 P aeruginosa AG86",> 128 µg/mL
same,MIC50 P aeruginosa AG31,"P aeruginosa; strain AG31, Table 1 (Example 2)",>128 µg/mL
same,MIC50 P aeruginosa AG32,"P aeruginosa; strain AG32, Table 1 (Example 2)",>128 µg/mL
same,IC50,[6],193 µM
same,IC50,[7],169 µM
CCC[C@@H]1C(CNCCO)O[C@H](O[C@@H]2C(N)C[C@@H](N)C(O)[C@H]2O[C@@H]2O[C@H](CNCCO)[C@H](O[C@H]3OC(CN)[C@@H](O)C(O)C3N)C2O)[C@@H](N)C1O (stereo partly shown) [Compound 193],MIC,E coli wild type; [9],4 µg/mL
same,MIC,P aeruginosa; [10],> 64 µg/mL
same,MIC,[1],2 µg/mL
same,MIC,[2],32 µg/mL
same,MIC,[3],2 µg/mL
NCC1O[C@H](O[C@@H]2C(O)[C@H](O[C@@H]3C(O)[C@H](N)CC(N)[C@H]3O[C@H]3OC(CO)[C@@H](CC(O)CO)C(O)[C@@H]3N)O[C@@H]2CO)C(N)C(O)[C@@H]1O (stereo partly shown) [Compound 198],MIC,E coli wild type; [9],8 µg/mL
same,MIC,P aeruginosa; [10],16 µg/mL
same,MIC,[1],4 µg/mL
same,MIC,[2],8 µg/mL
same,MIC,[3],2 to 4 µg/mL
CCNC1[C@@H](OC2C(N)CC(N)[C@@H](O)[C@H]2O[C@@H]2O[C@H](CO)[C@H](O)C2O)OC(CN)[C@@H](O)[C@@H]1O (stereo partly shown) [Compound 037],MIC,M. smegmatis SZ380; [11],64 µg/mL
same,MIC,E coli wild type; [12],16 to 32 µg/mL
same,MIC,[4]; [13],64 to 128 µg/mL
same,MIC,[4]; [14],32 µg/mL
same,MIC,M. abscessus; [15],128 µg/mL
same,MIC,M. abscessus; [16],> 128 µg/mL
same,MIC,M. abscessus; [17],32 µg/mL
"NCC[C@H](O)C(=O)N[C@@H]1C[C@H](N)[C@@H](O[C@H]2O[C@H](CN)[C@@H](O)[C@H](O)[C@H]2O)[C@H](O)[C@H]1O[C@H]1O[C@H](CO)[C@@H](O)[C@H](N)[C@H]1O [AMK, reference compound]",MIC M. smegmatis SZ380 WT,M. smegmatis SZ380; Table 5 (Example 3),0.5 µg/mL
same,MIC E. coli WT,"E coli wild type; WT, Table 5 (Example 3)",2 µg/mL
same,MIC E. coli AG106 AAC(2′)-Ia,[4]; Table 5 (Example 3),2 µg/mL
same,MIC E. coli pGB2armA armA,[4]; Table 5 (Example 3),>128 μg/ml
same,MIC E. coli pH434 AAC(2′)-Ib,"[4]; pH434 AAC(2′)-Ib, Table 5 (Example 3)",2 μg/ml
same,MIC M. abscessus ATCC 19977 WT,M. abscessus; [18],1 µg/mL
same,MIC M. abscessus clinical isolate,"M. abscessus; clinical isolate, Table 5 (Example 3)",2 µg/mL
same,MIC M. abscessus engineered Δeis2,M. abscessus; Table 5 (Example 3),0.125 to 0.25 µg/mL
CCC[C@H]1C[C@H](N)[C@@H](O[C@@H]2C(N)C[C@@H](N)C(O)[C@H]2O[C@@H]2O[C@H](CNC=O)[C@H](O[C@H]3OC(CN)[C@@H](O)C(O)C3N)C2O)OC1CO (stereo partly shown) [Compound 190],MIC,E coli wild type; [9],16 µg/mL
same,MIC,P aeruginosa; [10],> 64 µg/mL
same,MIC,[1],16 to 32 µg/mL
same,MIC,[2],> 64 µg/mL
same,MIC,[3],32 µg/mL
NCC1O[C@H](O[C@@H]2C(O)[C@H](O[C@@H]3C(O)[C@H](N)CC(N)[C@H]3O[C@H]3OC(CO)[C@@H](CCO)C(O)[C@@H]3N)O[C@@H]2CO)C(N)C(O)[C@@H]1O (stereo partly shown) [Compound 197],MIC,E coli wild type; [9],2 to 4 µg/mL
same,MIC,P aeruginosa; [10],32 µg/mL
same,MIC,[1],1 to 2 µg/mL
same,MIC,[2],2 µg/mL
same,MIC,[3],1 µg/mL
NCC1O[C@H](O[C@@H]2C(N)C[C@@H](N)C(O)[C@H]2O[C@@H]2O[C@H](CO)[C@H](F)C2O)[C@@H](N)C(O)[C@@H]1O (stereo partly shown) [Compound 093],MIC,M. smegmatis SZ380; [8],8 µg/mL
same,MIC,"E coli wild type; ATCC25922, read-out: MIC AG212 E. coli, strain AG212 E. coli (ATCC25922)",2 µg/mL
same,MIC,P aeruginosa; [10],> 64 µg/mL
same,MIC,[1],2 µg/mL
same,MIC,[2],16 µg/mL
same,MIC,[3],1 to 2 µg/mL
gentamicin [reference compound],MIC M. smegmatis SZ380 WT,M. smegmatis SZ380; Table 5 (Example 3),1 µg/mL
same,MIC E. coli WT,"E coli wild type; WT, Table 5 (Example 3)",0.5 µg/mL
same,MIC E. coli AG106 AAC(2′)-Ia,[4]; Table 5 (Example 3),2 to 4 µg/mL
same,MIC E. coli pGB2armA armA,[4]; Table 5 (Example 3),>128 μg/ml
same,MIC M. abscessus ATCC 19977 WT,M. abscessus; [18],2 to 4 µg/mL
same,MIC M. abscessus engineered Δeis2,M. abscessus; Table 5 (Example 3),2 µg/mL
NCC1O[C@H](O[C@@H]2C(O)[C@H](O[C@@H]3C(O)[C@H](N)CC(N)[C@H]3O[C@H]3OC(CO)[C@@H](CCCO)C(O)[C@@H]3N)O[C@@H]2CO)C(N)C(O)[C@@H]1O (stereo partly shown) [Compound 195],MIC,E coli wild type; [9],8 µg/mL
same,MIC,P aeruginosa; [10],64 µg/mL
same,MIC,[1],4 µg/mL
same,MIC,[2],8 µg/mL
same,MIC,[3],2 to 4 µg/mL
